In the supplement of paper PMC10307832:

Legend:
Assay in all cases: relative viability (nuclei count vs DMSO), 5 days (fraction); higher = more cells survive
IPA-3 + OSI-027 = compound: C1=CC=C2C(=C1)C=CC(=C2SSC3=C(C=CC4=CC=CC=C43)O)O [IPA-3] + COc1cccc2cc(-c3nc([C@H]4CC[C@H](C(=O)O)CC4)n4ncnc(N)c34)[nH]c12 [OSI-027] (partner 0.5 µM)
In short: (§1)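 Lung cancer cell lines in 1536-well plates got either a single drug or a fixed anchor-drug dose together with five library-drug doses (not always all listed) in √10 steps, by pin tool, on the day after seeding. Nuclei were counted after 5 days, and relative viability is the treated-to-vehicle ratio of nuclei counts. Values are medians of duplicate plates.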

IPA-3 + Phenformin = compound: C1=CC=C2C(=C1)C=CC(=C2SSC3=C(C=CC4=CC=CC=C43)O)O [IPA-3] + N=C(N)NC(=N)NCCc1ccccc1 [Phenformin] (partner 250 µM)
In short: as §1

Doramapimod + Pictilisib = compound: Cc1ccc(-n2nc(C(C)(C)C)cc2NC(=O)Nc2ccc(OCCN3CCOCC3)c3ccccc23)cc1 [Doramapimod] + CS(=O)(=O)N1CCN(Cc2cc3nc(-c4cccc5[nH]ncc45)nc(N4CCOCC4)c3s2)CC1 [Pictilisib] (partner 1 µM)
In short: as §1

IPA-3 + Tozasertib = compound: C1=CC=C2C(=C1)C=CC(=C2SSC3=C(C=CC4=CC=CC=C43)O)O [IPA-3] + Cc1cc(Nc2cc(N3CCN(C)CC3)nc(Sc3ccc(NC(=O)C4CC4)cc3)n2)n[nH]1 [Tozasertib] (partner 0.1 µM)
In short: as §1

## UMC-11
IPA-3 + OSI-027; first compound 0.2 µM
  relative viability: 0.5
IPA-3 + OSI-027; first compound 0.6325 µM
  relative viability: 0.49
IPA-3 + OSI-027; first compound 2 µM
  relative viability: 0.426
IPA-3 + OSI-027; first compound 6.325 µM
  relative viability: 0.458
IPA-3 + OSI-027; first compound 20 µM
  relative viability: 0.502
IPA-3 + Phenformin; first compound 0.2 µM
  relative viability: 0.391
IPA-3 + Phenformin; first compound 0.6325 µM
  relative viability: 0.336
IPA-3 + Phenformin; first compound 2 µM
  relative viability: 0.316
IPA-3 + Phenformin; first compound 6.325 µM
  relative viability: 0.341
IPA-3 + Phenformin; first compound 20 µM
  relative viability: 0.357
Doramapimod + Pictilisib; first compound 0.02 µM
  relative viability: 0.726
Doramapimod + Pictilisib; first compound 0.06325 µM
  relative viability: 0.759
Doramapimod + Pictilisib; first compound 0.2 µM
  relative viability: 0.726
Doramapimod + Pictilisib; first compound 0.6325 µM
  relative viability: 0.547
Doramapimod + Pictilisib; first compound 2 µM
  relative viability: 0.615
IPA-3 + Tozasertib; first compound 0.2 µM
  relative viability: 0.202
IPA-3 + Tozasertib; first compound 0.6325 µM
  relative viability: 0.205
IPA-3 + Tozasertib; first compound 2 µM
  relative viability: 0.215
IPA-3 + Tozasertib; first compound 6.325 µM
  relative viability: 0.224
IPA-3 + Tozasertib; first compound 20 µM
  relative viability: 0.225
